Reference: ChEMBL document CHEMBL4321867, “Optimization of LpxC Inhibitor Lead Compounds Focusing on Efficacy and Formulation for High Dose Intravenous Administration” (J Med Chem, 2020)
Values after ≈ are worked out from the molar mass of the structure shown.

Tests used:
[1] = test system: T1, UDP-3-O-acyl-N-acetylglucosamine deacetylase (Escherichia coli K-12), P0A725 [C125S]; conditions: 25 uM
T1 sequence (whole entry): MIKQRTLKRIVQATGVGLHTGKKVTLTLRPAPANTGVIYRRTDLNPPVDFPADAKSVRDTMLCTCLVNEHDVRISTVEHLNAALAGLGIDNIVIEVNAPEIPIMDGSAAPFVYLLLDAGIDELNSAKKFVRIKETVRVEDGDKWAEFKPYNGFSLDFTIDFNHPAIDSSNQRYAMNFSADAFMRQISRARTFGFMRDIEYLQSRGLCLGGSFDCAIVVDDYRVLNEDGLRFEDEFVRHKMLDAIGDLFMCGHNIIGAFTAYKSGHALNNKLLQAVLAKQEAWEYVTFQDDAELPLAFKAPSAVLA

[2] = test system: T2, UDP-3-O-acyl-N-acetylglucosamine deacetylase (Pseudomonas aeruginosa (strain ATCC 15692 / PAO1 / 1C / PRS 101 / LMG12228)), P47205 [C40S]; conditions: 25 uM
T2 sequence (whole entry): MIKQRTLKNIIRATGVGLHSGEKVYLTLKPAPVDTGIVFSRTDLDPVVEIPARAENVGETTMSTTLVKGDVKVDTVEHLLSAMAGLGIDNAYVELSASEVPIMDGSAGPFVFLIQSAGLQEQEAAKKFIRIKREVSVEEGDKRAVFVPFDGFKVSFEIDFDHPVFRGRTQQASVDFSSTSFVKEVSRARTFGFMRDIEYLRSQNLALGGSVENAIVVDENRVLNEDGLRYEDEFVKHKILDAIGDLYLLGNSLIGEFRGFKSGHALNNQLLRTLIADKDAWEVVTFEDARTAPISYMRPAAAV

in vivo [3] = conditions: mouse, sc, 150 mg/kg
in vivo [4] = conditions: Wistar, rat, iv, 10 mg/kg
physchem [5] = conditions: n-octanol/phosphate buffer, pH 7.4
physchem [6] = test: physchem
physchem [7] = conditions: buffer, pH 4
physchem [8] = conditions: buffer, pH 7
physchem [9] = conditions: buffer, pH 9
in vitro [10] = conditions: rat, hepatocytes
in vitro [11] = conditions: rat, liver microsomes
in vitro [12] = conditions: human, hepatocytes
in vitro [13] = conditions: human, liver microsomes
in vitro [14] = conditions: rat, plasma
physchem [15] = conditions: 5% mannitol/water, pH 4.5
Escherichia coli [16] = test: microbe, parasite or virus in culture; conditions: ATCC 25922
Klebsiella pneumoniae [17] = test: microbe, parasite or virus in culture; conditions: T6474
Pseudomonas aeruginosa [18] = test: microbe, parasite or virus in culture; conditions: ATCC 27853
Citrobacter freundii = test: microbe, parasite or virus in culture
Klebsiella aerogenes = test: microbe, parasite or virus in culture
Enterobacter cloacae = test: microbe, parasite or virus in culture
Escherichia coli [19] = test: microbe, parasite or virus in culture
Klebsiella oxytoca = test: microbe, parasite or virus in culture
Klebsiella pneumoniae [20] = test: microbe, parasite or virus in culture
Morganella morganii = test: microbe, parasite or virus in culture
Proteus mirabilis = test: microbe, parasite or virus in culture
Serratia marcescens = test: microbe, parasite or virus in culture
Acinetobacter baumannii = test: microbe, parasite or virus in culture
Burkholderia cepacia = test: microbe, parasite or virus in culture
Haemophilus influenzae = test: microbe, parasite or virus in culture
Moraxella catarrhalis = test: microbe, parasite or virus in culture
Pseudomonas aeruginosa [21] = test: microbe, parasite or virus in culture
[22] = test system: Stenotrophomonas maltophilia; test: microbe, parasite or virus in culture
physchem [23] = conditions: 5% mannitol/water, pH 8.4
in vivo [24] = conditions: Wistar, rat, iv, 50 mg/kg

Row | Structure (SMILES) | AUC(0-t) at 24 h (in vivo [3]) | logD (physchem [5]) | solubility at 24 h (physchem [7]) | solubility at 24 h (physchem [8]) | solubility at 24 h (physchem [9]) | MIC90 (Citrobacter freundii) | MIC90 (Klebsiella aerogenes) | MIC90 (Enterobacter cloacae) | MIC90 (Escherichia coli [19]) | MIC90 (Klebsiella oxytoca) | MIC90 (Klebsiella pneumoniae [20]) | MIC90 (Morganella morganii) | MIC90 (Proteus mirabilis) | MIC90 (Serratia marcescens) | MIC90 (Acinetobacter baumannii) | MIC90 (Burkholderia cepacia) | MIC90 (Haemophilus influenzae) | MIC90 (Moraxella catarrhalis) | MIC90 (Pseudomonas aeruginosa [21]) | MIC90 [22] | further results
1 | C[C@@](CCN1Cc2cc(C#CC#CC3CN(CCF)C3)cn2C1=O)(C(=O)NO)S(C)(=O)=O | 49100 ng·h/mL | 1 | > 780 µg/mL | 247 µg/mL (≈ 532 µM) | > 780 µg/mL | 0.5 µg/mL (≈ 1.08 µM) | 1 µg/mL (≈ 2.15 µM) | 1 µg/mL (≈ 2.15 µM) | 0.25 µg/mL (≈ 0.538 µM) | 0.125 µg/mL (≈ 0.269 µM) | 2 µg/mL (≈ 4.31 µM) | 0.25 µg/mL (≈ 0.538 µM) | 0.5 µg/mL (≈ 1.08 µM) | 0.25 µg/mL (≈ 0.538 µM) | > 16 µg/mL | 4 µg/mL (≈ 8.61 µM) | ≤ 0.03 µg/mL | > 16 µg/mL | 1 µg/mL (≈ 2.15 µM) | > 16 µg/mL | deltaTm [1]: 10.6 K; deltaTm [2]: 12.9 K; clearance at 24 h (in vivo [4]): 38 mL/min/kg; pKa (physchem [6]): 6.7; hepatocyte CLint at 1 µM (in vitro [10]): 15.4 µL/min/1e6 cells; microsomal CLint at 1 µM (in vitro [11]): > 1250 µL/min/mg; hepatocyte CLint at 1 µM (in vitro [12]): < 2 µL/min/1e6 cells; microsomal CLint at 1 µM (in vitro [13]): < 10 µL/min/mg; fraction unbound at 1 µM (in vitro [14]): 0.067; solubility (physchem [15]): 25000 µg/mL (≈ 53800 µM); MIC (Escherichia coli [16]): 0.06 µg/mL (≈ 0.129 µM); MIC (Klebsiella pneumoniae [17]): 0.25 µg/mL (≈ 0.538 µM); MIC (Pseudomonas aeruginosa [18]): 0.5 µg/mL (≈ 1.08 µM)
2 | C[C@@](CCN1Cc2cc(C#CC#C[C@@H]3C[C@@]3(F)CO)cn2C1=O)(C(=O)NO)S(C)(=O)=O | 236000 ng·h/mL | 0.9 | 220 µg/mL (≈ 487 µM) | 248 µg/mL (≈ 549 µM) | > 760 µg/mL | 1 µg/mL (≈ 2.21 µM) | 2 µg/mL (≈ 4.43 µM) | 4 µg/mL (≈ 8.86 µM) | 2 µg/mL (≈ 4.43 µM) | 4 µg/mL (≈ 8.86 µM) | 4 µg/mL (≈ 8.86 µM) | 0.5 µg/mL (≈ 1.11 µM) | 2 µg/mL (≈ 4.43 µM) | 1 µg/mL (≈ 2.21 µM) | > 16 µg/mL | 2 µg/mL (≈ 4.43 µM) | ≤ 0.03 µg/mL | > 16 µg/mL | 2 µg/mL (≈ 4.43 µM) | > 16 µg/mL | clearance at 24 h (in vivo [4]): 5.2 mL/min/kg; hepatocyte CLint at 1 µM (in vitro [10]): 13 µL/min/1e6 cells; microsomal CLint at 1 µM (in vitro [11]): 12 µL/min/mg; hepatocyte CLint at 1 µM (in vitro [12]): < 2 µL/min/1e6 cells; microsomal CLint at 1 µM (in vitro [13]): < 10 µL/min/mg; fraction unbound at 1 µM (in vitro [14]): 0.017; solubility (physchem [23]): 1000 µg/mL (≈ 2210 µM); MIC (Escherichia coli [16]): 0.25 µg/mL (≈ 0.554 µM); MIC (Klebsiella pneumoniae [17]): 0.5 µg/mL (≈ 1.11 µM); MIC (Pseudomonas aeruginosa [18]): 0.5 µg/mL (≈ 1.11 µM)
3 | CN1CC(C#CC#Cc2cc3n(c2)C(=O)N(CC[C@](C)(C(=O)NO)S(C)(=O)=O)C3)C1 | 52900 ng·h/mL | 0.3 | > 730 µg/mL | > 730 µg/mL | > 730 µg/mL | 1 µg/mL (≈ 2.31 µM) | 1 µg/mL (≈ 2.31 µM) | 4 µg/mL (≈ 9.25 µM) | 1 µg/mL (≈ 2.31 µM) | 4 µg/mL (≈ 9.25 µM) | 4 µg/mL (≈ 9.25 µM) | 0.5 µg/mL (≈ 1.16 µM) | 1 µg/mL (≈ 2.31 µM) | 0.5 µg/mL (≈ 1.16 µM) | > 16 µg/mL | 16 µg/mL (≈ 37 µM) | ≤ 0.03 µg/mL | > 16 µg/mL | 2 µg/mL (≈ 4.62 µM) | > 16 µg/mL | deltaTm [1]: 8.9 K; deltaTm [2]: 9.9 K; clearance at 24 h (in vivo [4]): 18 mL/min/kg; pKa (physchem [6]): 8.4; hepatocyte CLint at 1 µM (in vitro [10]): 8.6 µL/min/1e6 cells; microsomal CLint at 1 µM (in vitro [11]): 665 µL/min/mg; hepatocyte CLint at 1 µM (in vitro [12]): < 2 µL/min/1e6 cells; microsomal CLint at 1 µM (in vitro [13]): 48 µL/min/mg; fraction unbound at 1 µM (in vitro [14]): 0.19; solubility (physchem [15]): 30000 µg/mL (≈ 69400 µM); MIC (Escherichia coli [16]): 0.5 µg/mL (≈ 1.16 µM); MIC (Klebsiella pneumoniae [17]): 0.5 µg/mL (≈ 1.16 µM); MIC (Pseudomonas aeruginosa [18]): 0.5 µg/mL (≈ 1.16 µM)
4 | C[C@@](CCN1Cc2cc(C#CC#CC3CN(CCO)C3)cn2C1=O)(C(=O)NO)S(C)(=O)=O | 63200 ng·h/mL | 0.1 | > 780 µg/mL | > 780 µg/mL | > 780 µg/mL | 1 µg/mL (≈ 2.16 µM) | 1 µg/mL (≈ 2.16 µM) | 4 µg/mL (≈ 8.65 µM) | 1 µg/mL (≈ 2.16 µM) | 4 µg/mL (≈ 8.65 µM) | 2 µg/mL (≈ 4.32 µM) | 1 µg/mL (≈ 2.16 µM) | 1 µg/mL (≈ 2.16 µM) | 1 µg/mL (≈ 2.16 µM) | > 16 µg/mL | 16 µg/mL (≈ 34.6 µM) | ≤ 0.03 µg/mL | > 16 µg/mL | 2 µg/mL (≈ 4.32 µM) | > 16 µg/mL | deltaTm [1]: 9.7 K; deltaTm [2]: 11.2 K; clearance at 24 h (in vivo [24]): 28 mL/min/kg; pKa (physchem [6]): 7.9; hepatocyte CLint at 1 µM (in vitro [10]): 7.3 µL/min/1e6 cells; microsomal CLint at 1 µM (in vitro [11]): 198 µL/min/mg; hepatocyte CLint at 1 µM (in vitro [12]): < 2 µL/min/1e6 cells; microsomal CLint at 1 µM (in vitro [13]): 14 µL/min/mg; fraction unbound at 1 µM (in vitro [14]): 0.301; solubility (physchem [15]): 30000 µg/mL (≈ 64900 µM); MIC (Escherichia coli [16]): 0.5 µg/mL (≈ 1.08 µM); MIC (Klebsiella pneumoniae [17]): 1 µg/mL (≈ 2.16 µM); MIC (Pseudomonas aeruginosa [18]): 0.5 µg/mL (≈ 1.08 µM)
5 | C[C@@H](O)[C@H]1C(=O)N2C(C(=O)O)=C(SCCNC=N)C[C@H]12 [IMIPENEM ANHYDROUS] | – | – | – | – | – | 1 µg/mL (≈ 3.34 µM) | 2 µg/mL (≈ 6.68 µM) | 1 µg/mL (≈ 3.34 µM) | 0.25 µg/mL (≈ 0.835 µM) | 0.5 µg/mL (≈ 1.67 µM) | > 16 µg/mL | 16 µg/mL (≈ 53.4 µM) | 4 µg/mL (≈ 13.4 µM) | 1 µg/mL (≈ 3.34 µM) | > 16 µg/mL | > 16 µg/mL | 0.5 µg/mL (≈ 1.67 µM) | 0.06 µg/mL (≈ 0.2 µM) | > 16 µg/mL | > 16 µg/mL | –
